From patent US20110039721A1, “METHOD FOR PREDICTION ABOUT CARCINOGENICITY OF SUBSTANCE IN RODENT” (Chemicals Evaluation and Research Institute, priority 2007, published 2011)

Assays:
[1] = system: mRNA expressed from the genes (A) to (D) in rat liver; test: Behavior of genes (mRNA expression level, oligo-DNA microarray) in rat liver after 28-day oral administration; assay type: in vivo; conditions: mRNA vs vehicle control group
How it was run: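 Oral gavage, once daily × 28 days; male F344 SPF rats, 5 wk, n=4/group; vehicle controls given equal solvent volume. Liver excised day 28, total RNA purified. Significance: ≥1.5× or ≤1/1.5 of vehicle, direction concordant with other carcinogens.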

rodent = conditions: in vivo; cited from earlier work
liver = conditions: in vivo; cited from earlier work
[2] = gene group (A), Unigene No. Rn.167075
[3] = gene group (C), Unigene No. Rn.120914

## CCCCC(CC)COC(=O)c1ccccc1C(=O)OCC(CC)CCCC (centres unmarked) [TS002, Di(2-ethylhexyl)phthalate]
[1]; gene group (A), Unigene No. Rn.144554
  Behavior of gene caused by administration of chemical substance, Gene No. 4846: −
[1]; [2]
  Behavior of gene caused by administration of chemical substance, Gene No. 2026: +
  Behavior of gene caused by administration of chemical substance, Gene No. 4218: −
[1]; gene group (A), Unigene No. Rn.5834
  Behavior of gene caused by administration of chemical substance, Gene No. 6182: −
[1]; gene group (A), Unigene No. Rn.9836
  Behavior of gene caused by administration of chemical substance, Gene No. 5600: −
[1]; gene group (B), Unigene No. Rn.1430
  Behavior of gene caused by administration of chemical substance, Gene No. 1494: +
[1]; gene group (B), Unigene No. Rn.19329
  Behavior of gene caused by administration of chemical substance, Gene No. 2045: +
[1]; gene group (B), Unigene No. Rn.21240
  Behavior of gene caused by administration of chemical substance, Gene No. 2203: +
[1]; gene group (C), Unigene No. Rn.106184
  Behavior of gene caused by administration of chemical substance, Gene No. 533: +
[1]; gene group (C), Unigene No. Rn.108075
  Behavior of gene caused by administration of chemical substance, Gene No. 725: +
[1]; gene group (C), Unigene No. Rn.11766
  Behavior of gene caused by administration of chemical substance, Gene No. 1163: −
[1]; gene group (C), Unigene No. Rn.118529
  Behavior of gene caused by administration of chemical substance, Gene No. 4973: +
[1]; gene group (C), Unigene No. Rn.119024
  Behavior of gene caused by administration of chemical substance, Gene No. 4095: +
[1]; [3]
  Behavior of gene caused by administration of chemical substance, Gene No. 1334: −
  Behavior of gene caused by administration of chemical substance, Gene No. 6620: −
[1]; gene group (C), Unigene No. Rn.123063
  Behavior of gene caused by administration of chemical substance, Gene No. 6303: −
[1]; gene group (C), Unigene No. Rn.143213
  Behavior of gene caused by administration of chemical substance, Gene No. 5878: −
[1]; gene group (C), Unigene No. Rn.144946
  Behavior of gene caused by administration of chemical substance, Gene No. 1131: +
[1]; gene group (C), Unigene No. Rn.14744
  Behavior of gene caused by administration of chemical substance, Gene No. 1562: −
[1]; gene group (C), Unigene No. Rn.1647
  Behavior of gene caused by administration of chemical substance, Gene No. 1741: −
[1]; gene group (C), Unigene No. Rn.164817
  Behavior of gene caused by administration of chemical substance, Gene No. 893: −
[1]; gene group (C), Unigene No. Rn.167685
  Behavior of gene caused by administration of chemical substance, Gene No. 6026: −
[1]; gene group (C), Unigene No. Rn.185941
  Behavior of gene caused by administration of chemical substance, Gene No. 154: −
[1]; gene group (C), Unigene No. Rn.18728
  Behavior of gene caused by administration of chemical substance, Gene No. 1993: −
[1]; gene group (C), Unigene No. Rn.201760
  Behavior of gene caused by administration of chemical substance, Gene No. 813: +
[1]; gene group (C), Unigene No. Rn.23969
  Behavior of gene caused by administration of chemical substance, Gene No. 2494: −
[1]; gene group (C), Unigene No. Rn.24561
  Behavior of gene caused by administration of chemical substance, Gene No. 2546: −
[1]; gene group (C), Unigene No. Rn.43232
  Behavior of gene caused by administration of chemical substance, Gene No. 3776: −
[1]; gene group (C), Unigene No. Rn.4620
  Behavior of gene caused by administration of chemical substance, Gene No. 3929: −
[1]; gene group (C), Unigene No. Rn.9757
  Behavior of gene caused by administration of chemical substance, Gene No. 1119: −
[1]; gene group (C), Unigene No. Rn.9779
  Behavior of gene caused by administration of chemical substance, Gene No. 6742: +
[1]; gene group (C), Unigene No. Rn.9862
  Behavior of gene caused by administration of chemical substance, Gene No. 5634: −
[1]; gene group (D), Unigene No. Rn.9939
  Behavior of gene caused by administration of chemical substance, Gene No. 5726: −
rodent
  Carcinogenicity: C+
liver
  Liver carcinogenicity: Cr+
